# Experimental data published in US6638726B1, “Screening methods for compounds useful in the treatment of polycystic kidney disease” (Mount Sinai School of Medicine of New York University, priority 2000, dated 2003).
# Tested on: ADPKD cells
# Assay: modified Boyden chamber motility assay
# Type: cell-based, human
# Conditions: cells treated for 2 days with 10 mM LiCl, migration through 8 μM pores, 1%-5% FBS gradient, fluorescent microplate quantification, compared with NHCT and NHTAL controls
# Procedure: To assay for cell motility a number of different assays may be used, including but not limited to, standard migratory assays on slides or using modified Boyden chambers. Such assay systems are described in further detail in a working example of the present specification (See, Example 7).
# Using a modified Boyden chamber motility assay human renal epithelial cells and ADPKD cells were plated (5000 cells/membrane) in the upper chamber and allowed to migrate through 8 μM pores for 0-15 hours in response to a 1%-5% FBS gradient. All primary and differentiated conditionally immortalized cell types migrate in a a time-dependent fashion but more normal adult collecting tubule (NHCT) and thick ascending limb (NHTAL) cells appeared in the lower chamber than ADPKD epithelia, 975±10 (NHCT), 1060±(NHTAL) versus 426±20 (ADPKD). The effect of lithium on renal epithelial cell motility was assessed. Calcein-AM (Goldberg, A. Fluorescent Blocking Membrane Enhances Analyses of Cell-Based Assay. Becton Dickinson Techniques Bulletin #429) labeled cells were treated for 2 days±10 mM LICL and then plated onto membranes as described above.
smiles,measurement,setting,value
"[Cl-].[Li+] [LiCl, lithium chloride]",motility of ADPKD cells,,significantly increased the motility of ADPKD cells
same,motility of ADPKD cells,listed as Lithium,increases the motility of ADPKD cells to the level observed for NHCT (CT) cells
same,motility of ADPKD cells,listed as lithium,decreased epithelial cell motility can be reversed
same,motility of ADPKD cells,listed as lithium chloride,increase the motility of ADPKD cells to almost normal levels
